Measured values taken from patent publication US9788541B2, “Antibacterial surfactant/microgel formulations, methods of making and methods of using the same” (The University of Toledo, priority 2012, dated 2017).

Test system: Pseudomonas aeruginosa PAO1
Test: Antibacterial activity test, viable cell counts by heterotrophic plate count
Format: cell-based
Conditions: microgel-free surfactant solutions (10 mmol/kg SDS, 14.4 mmol/kg TX-100, 3.0 mmol/kg 40:60 SDS:TX100), 0-30 min; FIG. 5 Groups 6-8
Method: The effect of anionic and nonionic surfactants on the microgel antibacterial properties was probed using Pseudomonas aeruginosa (wild-type P. aeruginosa PAOI strain) as model Gram-negative bacteria. The bacteria were cultured in one-tenth strength LB broth (2.5 g/L, Difco Laboratory, Detroit, Mich.) at 37° C. until the late-exponential phase. Bacterial cells were then harvested by centrifugation at 2,000 g for 15 min (using an Eppendorf 5804R centrifuge; Hamburg, Germany), washed and resuspended in phosphate buffer (0.54 g Na2HPQ4 and 0.88 g KH2PO4 per liter, pH=6.98) as bacterial suspensions (0D600=0.25±0.02).
Each antimicrobial formulation sample was then tested in triplicate at room temperature (22±2° C.). The bacterial suspension was mixed with the surfactant/microgel formulations in a 1:1000 ratio (e.g., 15 μl:15 ml). After mixing, samples were taken at 5, 15, and 30 min to quantify the effect of surfactant/microgel formulations on the number of viable cells. The viable cells were enumerated at each time point using the heterotrophic plate count method with R2A agar plates (Difco Laboratories, Detroit, Mich.).
The antibacterial activity of the surfactant/microgel formulations was tested using Pseudomonas aeruginosa PAO1 as a model Gram-negative bacteria. […]

CCCCCCCCCCCCOS(=O)(=O)[O-].[Na+] [SDS, sodium dodecyl sulfate]
effect on bacterial viability: no short-term effect on bacterial viability

t-octylphenoxypolyethoxyethanol [TX100]
effect on bacterial viability: no short-term effect on bacterial viability
